The target in the first assay is human factor Xa (Homo sapiens, UniProt P00742). Put plainly: Factor Xa assay (chromogenic, substrate S-2765).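 Further: purified enzyme preincubated with inhibitor for 10 min before substrate addition, final reaction volume 100 µl.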 Format: biochemical.
Chain of human factor Xa (P00742 235-488 limits assumed): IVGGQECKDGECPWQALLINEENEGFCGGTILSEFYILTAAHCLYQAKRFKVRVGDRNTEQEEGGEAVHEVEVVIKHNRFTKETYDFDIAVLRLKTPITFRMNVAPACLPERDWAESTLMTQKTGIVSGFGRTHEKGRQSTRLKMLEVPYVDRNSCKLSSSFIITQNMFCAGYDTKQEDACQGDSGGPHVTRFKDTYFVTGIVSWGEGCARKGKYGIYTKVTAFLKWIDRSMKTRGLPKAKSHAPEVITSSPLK
Chain of human factor Xa (P00742 41-179 partner limits assumed): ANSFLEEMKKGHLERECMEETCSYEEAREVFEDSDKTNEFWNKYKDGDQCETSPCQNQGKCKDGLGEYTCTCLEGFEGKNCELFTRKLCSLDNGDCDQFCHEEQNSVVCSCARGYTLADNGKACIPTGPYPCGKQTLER
Conditions: not given
As to `Cc1cccc2c(C#N)c(C(=O)NC3CCN(C(C)C)CC3)n(Cc3cc(-c4ccc(Cl)s4)on3)c12` [Example 161, 1-[5-(5-Chloro-thiophen-2-yl)-isoxazol-3-ylmethyl]-3-cyano-7-methyl-1H-indole-2-carboxylic acid (1-isopropyl-piperidin-4-yl)-amide], the affinity corresponds to a Ki of 0.1 nM. With `Cc1ccc(C)c2c1cc(C(=O)NC1CCN(C(C)C)CC1)n2Cc1cc(-c2ccc(Cl)s2)on1` [Example 178, 1-[5-(5-Chloro-thiophen-2-yl)-isoxazol-3-ylmethyl]-4,7-dimethyl-1H-indole-2-carboxylic acid (1-isopropyl-piperidin-4-yl)-amide], the Ki (usually a measure of affinity in units of concentration, obtained from inhibition or displacement) came out at 1.3 nM. The compound `CC(C)N1CCC(NC(=O)c2cc3c(Cl)cccc3n2Cc2cc(-c3ccc(Cl)s3)on2)CC1` [Example 182, 4-Chloro-1-[5-(5-chloro-thiophen-2-yl)-isoxazol-3-ylmethyl]-1H-indole-2-carboxylic acid (1-isopropyl-piperidin-4-yl)-amide] displayed a Ki of 5 nM.

The assay is the same for the next values; noted with them: inhibition constant for factor Xa; purified enzyme 0.5 nM, substrate S-2765 140 μM, 25° C., pH 7.8; Ki=IC50/{1+(substrate concentration/Km)}; read-out: Ki(FXa).
`CC(C)N1CCC(NC(=O)c2cc3ccccc3n2Cc2cnc(-c3ccc(Cl)s3)s2)CC1` [Example 162]: the Ki was 57 nM. Same read-out and setting: to `CC(C)N1CCC(NC(=O)c2cc3ccccc3n2Cc2cccc(Cl)c2)CC1` [Example 163, 1-(3-Chloro-benzyl)-1H-indole-2-carboxylic acid (1-isopropyl-piperidin-4-yl)-amide] belongs 654 nM; to `CC(C)N1CCC(NC(=O)c2cc3ccccc3n2CCc2ccc(Cl)cc2)CC1` [Example 169, 1-[2-(4-Chloro-phenyl)-ethyl]-1H-indole-2-carboxylic acid (1-isopropyl-piperidin-4-yl)-amide], 73 nM; to `CC(C)N1CCC(NC(=O)c2cc3ccccc3n2CCc2ccc(Cl)cc2Cl)CC1` [Example 170, 1-[2-(2,4-Dichloro-phenyl)-ethyl]-1H-indole-2-carboxylic acid (1-isopropyl-piperidin-4-yl)-amide], 470 nM. Regarding `Cc1cccc2c1cc(C(=O)NC1CCN(C(C)C)CC1)n2Cc1cc(-c2ccc(Cl)s2)on1` [Example 174, 1-[5-(5-Chloro-thiophen-2-yl)-isoxazol-3-ylmethyl]-4-methyl-1H-indole-2-carboxylic acid (1-isopropyl-piperidin-4-yl)-amide], the Ki is 3 nM. For `CC(C)N1CCC(NC(=O)c2cc3cc(C#N)ccc3n2Cc2cc(-c3ccc(Cl)s3)on2)CC1` [Example 176, 1-[5-(5-Chloro-thiophen-2-yl)-isoxazol-3-ylmethyl]-5-cyano-1H-indole-2-carboxylic acid (1-isopropyl-piperidin-4-yl)-amide], the Ki worked out at 2 nM. Still for that read-out and setting: to `CCC(CC)N1CCC(NC(=O)c2cc3ccccc3n2Cc2cc(-c3ccc(Cl)s3)on2)CC1` [Example 186, 1-[5-(5-Chloro-thiophen-2-yl)-isoxazol-3-ylmethyl]-1H-indole-2-carboxylic acid [1-(1-ethyl-propyl)-piperidin-4-yl]-amide] belongs 220 nM; to `CN1CCC(NC(=O)c2cc3ccccc3n2Cc2cc(-c3ccc(Cl)s3)on2)CC1` [Example 187, 1-[5-(5-Chloro-thiophen-2-yl)-isoxazol-3-ylmethyl]-1H-indole-2-carboxylic acid (1-methyl-piperidin-4-yl)-amide], 40 nM; to `NC(=O)N1CCC(NC(=O)c2cc3ccccc3n2Cc2cc(-c3ccc(Cl)s3)on2)CC1` [Example 190, 1-[5-(5-Chloro-thiophen-2-yl)-isoxazol-3-ylmethyl]-1H-indole-2-carboxylic acid (1-carbamoyl-piperidin-4-yl)-amide], 1080 nM. As to `CC(=O)N1CCC(NC(=O)c2cc3ccccc3n2Cc2cc(-c3ccc(Cl)s3)on2)CC1` [Example 192, 1-[5-(5-Chloro-thiophen-2-yl)-isoxazol-3-ylmethyl]-1H-indole-2-carboxylic acid (1-acetyl-piperidin-4-yl)-amide], the Ki is 763 nM.

On to `O=C(NC1CCN(c2ccncn2)CC1)c1cc2ccccc2n1Cc1cc(-c2ccc(Cl)s2)on1` [Example 194, 1-[5-(5-Chloro-thiophen-2-yl)-isoxazol-3-ylmethyl]-1H-indole-2-carboxylic acid (1-pyrimidin-4-yl-piperidin-4-yl)-amide], for which the Ki turned out to be 95 nM. Still for that read-out and setting: to `CC(C)CN1CCC(NC(=O)c2cc3ccccc3n2Cc2cc(-c3ccc(Cl)s3)on2)CC1` [Example 199, 1-[5-(5-Chloro-thiophen-2-yl)-isoxazol-3-ylmethyl]-1H-indole-2-carboxylic acid (1-isobutyl-piperidin-4-yl)-amide] belongs 142 nM; to `CCCN1CCC(NC(=O)c2cc3ccccc3n2Cc2cc(-c3ccc(Cl)s3)on2)CC1` [Example 200], 64 nM.

Staying with this assay, now noted: read-out: Ki(FXa).
Consider `CC(C)N1CCC(NC(=O)c2cc3ccccc3n2Cc2cccc(C(N)=O)c2)CC1` [Example 165, 1-(3-Carbamoyl-benzyl)-1H-indole-2-carboxylic acid (1-isopropyl-piperidin-4-yl)-amide], for which the Ki is 765 nM. The same measure, in the same setting: to `COc1cccc2c1cc(C(=O)NC1CCN(C(C)C)CC1)n2CCc1ccc(Cl)cc1` [Example 172, 1-[2-(4-Chloro-phenyl)-ethyl]-4-methoxy-1H-indole-2-carboxylic acid (1-isopropyl-piperidin-4-yl)-amide] belongs 41 nM; to `CC(C)N1CCC(NC(=O)c2cc3c(Br)cccc3n2Cc2cc(-c3ccc(Cl)s3)on2)CC1` [Example 173, 4-Bromo-1-[5-(5-chloro-thiophen-2-yl)-isoxazol-3-ylmethyl]-1H-indole-2-carboxylic acid (1-isopropyl-piperidin-4-yl)-amide], 15 nM; to `CC(C)N1CCC(NC(=O)c2cc3c(C(F)(F)F)cccc3n2Cc2cc(-c3ccc(Cl)s3)on2)CC1` [Example 177, 1-[5-(5-Chloro-thiophen-2-yl)-isoxazol-3-ylmethyl]-4-trifluoromethyl-1H-indole-2-carboxylic acid (1-isopropyl-piperidin-4-yl)-amide], 15 nM. As to `COc1ccc(OC)c2c1cc(C(=O)NC1CCN(C(C)C)CC1)n2Cc1cc(-c2ccc(Cl)s2)on1` [Example 179, 1-[5-(5-Chloro-thiophen-2-yl)-isoxazol-3-ylmethyl]-4,7-dimethoxy-1H-indole-2-carboxylic acid (1-isopropyl-piperidin-4-yl)-amide], the Ki was 5.5 nM. Turning to `CC(C)N1CCC(NC(=O)c2cc3c(Cl)ccc(Cl)c3n2Cc2cc(-c3ccc(Cl)s3)on2)CC1` [Example 180, 4,7-Dichloro-1-[5-(5-chloro-thiophen-2-yl)-isoxazol-3-ylmethyl]-1H-indole-2-carboxylic acid (1-isopropyl-piperidin-4-yl)-amide], the inhibitory constant (Ki) was determined as 24 nM.

On to `CC(C)N1CCC(NC(=O)c2cc3cc(Cl)cc(Cl)c3n2Cc2cc(-c3ccc(Cl)s3)on2)CC1` [Example 181, 5,7-Dichloro-1-[5-(5-chloro-thiophen-2-yl)-isoxazol-3-ylmethyl]-1H-indole-2-carboxylic acid (1-isopropyl-piperidin-4-yl)-amide], for which the inhibition constant Ki was 14 nM. For the compound `CN1CCN(NC(=O)c2cc3ccccc3n2Cc2cc(-c3ccc(Cl)s3)on2)CC1` [Example 183, 1-[5-(5-Chloro-thiophen-2-yl)-isoxazol-3-ylmethyl]-1H-indole-2-carboxylic acid (4-methyl-piperazin-1-yl)-amide], the inhibition constant (Ki) came to 76 nM. Take `CCOC(=O)CN(C(=O)c1cc2cccc(C)c2n1Cc1cc(-c2ccc(Cl)s2)on1)C1CCN(C(C)C)CC1` [Example 184, [{1-[5-(5-Chloro-thiophen-2-yl)-isoxazol-3-ylmethyl]-7-methyl-1H-Indole-2-carbonyl}-(1-isopropyl-piperidin-4-yl)-amino]-acetic acid ethyl ester]: the Ki came out at 13 nM. On the same count and under the same terms, the value for `Cc1cccc2cc(C(=O)N(CC(=O)O)C3CCN(C(C)C)CC3)n(Cc3cc(-c4ccc(Cl)s4)on3)c12` [Example 185, [{1-[5-(5-Chloro-thiophen-2-yl)-isoxazol-3-ylmethyl]-7-methyl-1H-indole-2-carbonyl}-(1-isopropyl-piperidin-4-yl)-amino]-acetic acid] was 5 nM. On the same count and under the same terms, to `O=C(NC1CCN(CC(F)(F)F)CC1)c1cc2ccccc2n1Cc1cc(-c2ccc(Cl)s2)on1` [Example 188, 1-[5-(5-Chloro-thiophen-2-yl)-isoxazol-3-ylmethyl]-1H-indole-2-carboxylic acid [1-(2,2,2-trifluoro-ethyl)-piperidin-4-yl]-amide] belongs 1030 nM; to `O=CN1CCC(NC(=O)c2cc3ccccc3n2Cc2cc(-c3ccc(Cl)s3)on2)CC1` [Example 189, 1-[5-(5-Chloro-thiophen-2-yl)-isoxazol-3-ylmethyl]-1H-indole-2-carboxylic acid (1-formyl-piperidin-4-yl)-amide], 2020 nM.

Regarding `CS(=O)(=O)N1CCC(NC(=O)c2cc3ccccc3n2Cc2cc(-c3ccc(Cl)s3)on2)CC1` [Example 191, 1-[5-(5-Chloro-thiophen-2-yl)-isoxazol-3-ylmethyl]-1H-indole-2-carboxylic acid (1-methanesulfonyl-piperidin-4-yl)-amide], the Ki came to 136 nM. Consider `O=C(NC1CCN(c2ccnc(Cl)n2)CC1)c1cc2ccccc2n1Cc1cc(-c2ccc(Cl)s2)on1` [Example 193, 1-[5-(5-Chloro-thiophen-2-yl)-isoxazol-3-ylmethyl]-1H-indole-2-carboxylic acid [1-(2-chloro-pyrimidin-4-yl)-piperidin-4-yl]-amide], for which the Ki worked out at 199 nM. Still for that read-out and setting: to `COC(=O)N1CCC(NC(=O)c2cc3ccccc3n2Cc2cc(-c3ccc(Cl)s3)on2)CC1` [Example 201, 4-({1-[5-(5-Chloro-thiophen-2-yl)-isoxazol-3-ylmethyl]-1H-indole-2-carbonyl}-amino)-piperidine-1-carboxylic acid methyl ester] belongs 1780 nM; to `CC(C)N1CCN(NC(=O)c2cc3ccccc3n2Cc2cc(-c3ccc(Cl)s3)on2)CC1` [Example 202, 1-[5-(5-Chloro-thiophen-2-yl)-isoxazol-3-ylmethyl]-1H-indole-2-carboxylic acid (4-isopropyl-piperazin-1-yl)-amide], 20 nM.

(Values after patent US20090069565A1, “NEW INDOLE DERIVATIVES AS FACTOR XA INHIBITORS” (priority 2001, published 2009).)
